A short description of series [1]: Degree of solubility in propylene glycol monomethyl ether acetate (PGMEA). Format: physicochemical. The conditions noted are these: for Degree of solubility in PGMEA compared with Comparative Examples 1 to 3 (identical anion, different cation): versus Comparative Examples 1 to 3; for Degree of solubility (%): in propylene glycol monomethyl ether acetate (PGMEA). The protocol:
The degrees of solubility in propylene glycol monomethyl ether acetate (PGMEA) of the photo-acid generators (A-1) to (A-10) of the present invention and the photo-acid generators (H-1) to (H-3) of comparative examples were measured.
The degree of solubility determined by the above-mentioned operations was judged according to the following criteria. The results are shown in Table 2. • S: 30% or more • A: 5% or more but less than 30% • B: 1% or more but less than 5% • C: less than 1%

The nature of series [2]: Evaluation of light sensitivity: acid generation ratio after ArF excimer lamp exposure (Rhodamine B base colour reagent). In kind it is physicochemical. As to conditions: 2.5 mM in acetonitrile with 2.5 mM Rhodamine B base; ArF excimer lamp 193 nm, 1.8 mW/cm^2, integrated amount of light 100 mJ/cm^2. The protocol:
The photo-acid generators (A-1) to (A-10) of the present invention and the photo-acid generators (H-1) to (H-3) of comparative examples were each diluted with acetonitrile so that their molar concentrations would be 2.5 mM, and then Rhodamine B base (a color reagent for an acid, produced by Sigma-Aldrich) was added to the respective solutions so that the molar concentration would be 2.5 mM, yielding sample solutions.
A sample solution obtained above was put into a quartz cell having an optical path length of 1 cm and then was exposed to light under prescribed conditions using an ArF excimer lamp (center wavelength=193 nm). The absorbance near 556 nm of the respective sample solutions after exposure to light was measured with a spectrophotometer (UV-vis) because the photo-acid generator in a sample solution is decomposed upon exposure to light to generate an acid, which then reacts with Rhodamine B base and, as a result, the absorbance near 556 nm increases. Based on the absorbance at 556 nm, the molar concentration of the acid in the sample solution after exposure to light was determined using a calibration curve (standard substance: p-toluenesulfonic acid). From the acid concentration determined and the initial concentration of the photo-acid generator, the acid generation ratio was determined by the following calculation.
The acid generation ratio determined by the above-mentioned operations was judged according to the following criteria. The results are shown in Table 2. • A: 55% or more • C: less than 55% • (Light Exposure Conditions) • Photolithography machine: ArF excimer lamp (manufactured by USHIO INC.) • Illuminance (measured with a 193 nm head illuminometer): 1.8 mW/cm^2 • Integrated amount of light (measured with a 193 nm head illuminometer): 100 mJ/cm^2 <Evaluation of Solubility> (Measurement of Degree of Solubility)

Molecules are shown by their SMILES.

Consider `Fc1cccc([S+](c2ccccc2)c2ccccc2)c1` [A-1], for which, in series [1], the “Degree of solubility in PGMEA compared with Comparative Examples 1 to 3 (identical anion, different cation)” value is “higher” and the “Degree of solubility (%)” value is “A (5% or more but less than 30%)”. Further, the “Acid generation ratio (%)” value in series [2] is on record as “A (55% or more)”.
Regarding `Fc1cccc([S+](c2ccccc2)c2ccccc2)c1` [A-2], the “Degree of solubility (%)” value in series [1] was “S (30% or more)”. In addition, in series [2], the “Acid generation ratio (%)” value is listed as “A (55% or more)”.
Regarding `Fc1cccc([S+](c2ccccc2)c2ccccc2)c1` [A-3], in series [1], the “Degree of solubility (%)” value is on record as “S (30% or more)”. In series [2], the “Acid generation ratio (%)” value is on record as “A (55% or more)”.
Consider `Fc1cccc([S+](c2ccccc2)c2ccccc2)c1` [A-4], for which the “Degree of solubility (%)” value in series [1] was “S (30% or more)”. Further, in series [2], the “Acid generation ratio (%)” value was “A (55% or more)”.
For the compound `FC(F)(F)c1cccc([S+](c2ccccc2)c2ccccc2)c1` [A-6, diphenyl-3-trifluoromethylphenylsulfonium trifluoromethane sulfonate], in series [1], the “Degree of solubility in PGMEA compared with Comparative Examples 1 to 3 (identical anion, different cation)” value is given as “higher” and the “Degree of solubility (%)” value is on record as “A (5% or more but less than 30%)”. Moreover, in series [2], the “Acid generation ratio (%)” value is reported as “A (55% or more)”.
Take `FC(F)(F)c1cccc([S+](c2ccccc2)c2ccccc2)c1` [A-7]: the “Degree of solubility (%)” value in series [1] is reported as “S (30% or more)”. For the same compound, the “Acid generation ratio (%)” value in series [2] is given as “A (55% or more)”.
In the case of `FC(F)(F)c1cccc([S+](c2ccccc2)c2ccccc2)c1` [A-8], the “Degree of solubility (%)” value in series [1] is “S (30% or more)”. In series [2], the “Acid generation ratio (%)” value is recorded as “A (55% or more)”.
On to `FC(F)(F)c1cccc([S+](c2ccccc2)c2ccccc2)c1` [A-9], for which, in series [1], the “Degree of solubility (%)” value was “S (30% or more)”. Further, the “Acid generation ratio (%)” value in series [2] is reported as “A (55% or more)”.
Regarding `O=S(=O)([O-])C(F)(F)F.c1ccc([S+](c2ccccc2)c2ccccc2)cc1` [H-1, Triphenylsulfonium trifluoromethanesulfonate, reference compound], the “Degree of solubility (%)” value in series [1] is “C (less than 1%)”. Besides, in series [2], the “Acid generation ratio (%)” value is recorded as “A (55% or more)”.
As to `Cc1ccc([S+](c2ccccc2)c2ccccc2)cc1.O=S(=O)([O-])C(F)(F)F` [H-2, (4-Methylphenyl)diphenylsulfonium trifluoromethanesulfonate, reference compound], in series [1], the “Degree of solubility (%)” value is “B (1% or more but less than 5%)”. Also, in series [2], the “Acid generation ratio (%)” value is recorded as “C (less than 55%)”.
Regarding `Fc1ccc([S+](c2ccccc2)c2ccccc2)cc1.O=S(=O)([O-])C(F)(F)F` [H-3, (4-Fluorophenyl)diphenylsulfonium trifluoromethanesulfonate, reference compound], in series [1], the “Degree of solubility (%)” value is “B (1% or more but less than 5%)”. The “Acid generation ratio (%)” value in series [2] is on record as “C (less than 55%)”.

Source of the values: patent US9045398B2, “Sulfonium salt and photo-acid generator” (SAN-APRO LTD., priority 2013, dated 2015).
